One data set deals with T1, LXRβ (NR1H2) (Homo sapiens, UniProt P55055).
T1 construct: expressed in transfected cells; host or cells: NIH-3T3
T1 sequence (P55055 1-460): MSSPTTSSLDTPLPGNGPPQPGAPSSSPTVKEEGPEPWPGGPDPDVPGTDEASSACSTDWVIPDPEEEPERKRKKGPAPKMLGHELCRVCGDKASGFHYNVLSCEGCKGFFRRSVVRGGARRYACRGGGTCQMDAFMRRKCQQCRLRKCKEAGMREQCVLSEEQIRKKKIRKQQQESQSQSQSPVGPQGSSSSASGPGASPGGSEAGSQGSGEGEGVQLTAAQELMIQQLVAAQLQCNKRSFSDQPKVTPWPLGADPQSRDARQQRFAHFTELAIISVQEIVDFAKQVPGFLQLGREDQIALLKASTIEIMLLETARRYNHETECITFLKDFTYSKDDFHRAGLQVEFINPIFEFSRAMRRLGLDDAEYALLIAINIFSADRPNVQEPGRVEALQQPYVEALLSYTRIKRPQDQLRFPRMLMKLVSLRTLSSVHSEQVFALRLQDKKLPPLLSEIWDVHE
Description: R-SAT single receptor format, LXRβ. Type of data set: cell-based. Particulars: NIH-3T3 cells transfected with LXRβ. An excerpt:
(§1) Curves were generated using XLFit software ([…]).

The target of another data set is T2, LXRα (NR1H3) (Homo sapiens, UniProt Q13133).
T2 construct: expressed in transfected cells; host or cells: NIH-3T3
T2 sequence (Q13133 1-447): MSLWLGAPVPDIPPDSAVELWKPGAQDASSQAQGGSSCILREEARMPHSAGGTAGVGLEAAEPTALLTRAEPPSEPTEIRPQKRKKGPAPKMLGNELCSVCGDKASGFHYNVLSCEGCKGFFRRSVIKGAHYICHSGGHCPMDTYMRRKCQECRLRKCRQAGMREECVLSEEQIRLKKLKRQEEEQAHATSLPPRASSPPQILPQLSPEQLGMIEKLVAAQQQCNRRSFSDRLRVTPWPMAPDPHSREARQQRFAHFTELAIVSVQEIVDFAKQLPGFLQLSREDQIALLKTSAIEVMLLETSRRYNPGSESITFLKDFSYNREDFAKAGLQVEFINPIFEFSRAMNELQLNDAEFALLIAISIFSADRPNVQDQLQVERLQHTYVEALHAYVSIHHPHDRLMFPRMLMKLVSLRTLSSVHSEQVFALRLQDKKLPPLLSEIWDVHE
Description: R-SAT single receptor format, LXRα. Particulars: NIH-3T3 cells transfected with LXRα. The class given is cell-based.
Description: as §1

The target in data set [1] is T3, CARα and RXR nuclear receptors (heterodimer) (Homo sapiens, UniProt Q14994).
T3 construct: expressed in transfected cells
T3 sequence (Q14994 1-348 isoform Q14994-2): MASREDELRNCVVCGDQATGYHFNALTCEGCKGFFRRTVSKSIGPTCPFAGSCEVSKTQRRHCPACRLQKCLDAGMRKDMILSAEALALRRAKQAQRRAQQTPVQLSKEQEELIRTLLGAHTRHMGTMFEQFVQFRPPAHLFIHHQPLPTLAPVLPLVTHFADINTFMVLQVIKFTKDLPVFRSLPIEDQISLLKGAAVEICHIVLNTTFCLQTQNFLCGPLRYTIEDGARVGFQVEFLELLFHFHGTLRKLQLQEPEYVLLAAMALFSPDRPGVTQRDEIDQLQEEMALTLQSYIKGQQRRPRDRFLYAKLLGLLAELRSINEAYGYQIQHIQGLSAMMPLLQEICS
T3 sequence (P48443 1-463 partner): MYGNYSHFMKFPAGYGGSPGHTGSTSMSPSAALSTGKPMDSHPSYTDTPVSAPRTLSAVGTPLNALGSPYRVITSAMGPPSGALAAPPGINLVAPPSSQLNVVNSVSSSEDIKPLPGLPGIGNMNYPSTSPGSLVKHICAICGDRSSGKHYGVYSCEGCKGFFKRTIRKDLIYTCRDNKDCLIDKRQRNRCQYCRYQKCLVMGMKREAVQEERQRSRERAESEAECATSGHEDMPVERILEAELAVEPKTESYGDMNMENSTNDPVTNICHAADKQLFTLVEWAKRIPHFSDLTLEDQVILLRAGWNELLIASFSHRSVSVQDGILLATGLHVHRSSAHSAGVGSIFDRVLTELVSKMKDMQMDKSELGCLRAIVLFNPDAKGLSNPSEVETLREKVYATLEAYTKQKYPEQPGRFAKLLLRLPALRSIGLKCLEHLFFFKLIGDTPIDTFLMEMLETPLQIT
Description: R-SAT inverse agonism, CARα/RXR. Type of data set: cell-based. Conditions: cells transfected with CARα and RXR, β-galactosidase activity, FIG. 4A.
Description: as §1

In a further data set the target is T4, PPARδ (NR1C2) (Homo sapiens, UniProt Q03181).
T4 construct: expressed in transfected cells; host or cells: NIH-3T3
T4 sequence (Q03181 1-441): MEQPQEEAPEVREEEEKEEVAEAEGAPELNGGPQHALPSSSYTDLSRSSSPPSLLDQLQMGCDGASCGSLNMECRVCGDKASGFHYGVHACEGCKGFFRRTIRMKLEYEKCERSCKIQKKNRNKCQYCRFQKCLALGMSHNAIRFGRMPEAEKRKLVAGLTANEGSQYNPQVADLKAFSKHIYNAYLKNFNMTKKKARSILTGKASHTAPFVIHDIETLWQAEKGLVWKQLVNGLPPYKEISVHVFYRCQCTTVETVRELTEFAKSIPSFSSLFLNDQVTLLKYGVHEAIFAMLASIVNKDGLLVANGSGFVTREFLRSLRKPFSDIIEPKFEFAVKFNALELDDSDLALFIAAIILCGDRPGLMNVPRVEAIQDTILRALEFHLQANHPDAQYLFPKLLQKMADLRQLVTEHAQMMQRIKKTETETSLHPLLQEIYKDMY
Description: R-SAT single receptor format, PPARδ. The class given is cell-based. Conditions: NIH-3T3 cells transfected with PPARδ.
Description: as §1

In a further data set the target is T5, PXR/RXR heterodimer (Homo sapiens, UniProt O75469).
T5 sequence (O75469 1-434): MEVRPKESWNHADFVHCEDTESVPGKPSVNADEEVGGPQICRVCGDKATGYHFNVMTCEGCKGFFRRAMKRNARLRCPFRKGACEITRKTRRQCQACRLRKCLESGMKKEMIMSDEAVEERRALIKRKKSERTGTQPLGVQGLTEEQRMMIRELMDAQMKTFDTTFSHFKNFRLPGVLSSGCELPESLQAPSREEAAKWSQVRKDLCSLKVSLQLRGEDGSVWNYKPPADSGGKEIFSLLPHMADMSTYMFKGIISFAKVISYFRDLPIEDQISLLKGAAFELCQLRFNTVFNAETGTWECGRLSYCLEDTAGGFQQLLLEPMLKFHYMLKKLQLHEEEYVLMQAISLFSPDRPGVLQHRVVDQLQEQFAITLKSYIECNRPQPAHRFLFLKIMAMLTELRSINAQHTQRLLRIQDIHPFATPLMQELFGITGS
T5 sequence (P48443 1-463 partner): T3 sequence (P48443 1-463 partner)
Particulars: 5 days.

As a reminder, the EC50 is the midpoint of the concentration-response curve.

Description for PXR/RXR heterodimer: On day one, cells were trypsinized, centrifuged and plated at 8,000 cells/well in a 96-well plate in 100 μl/well of Dubelcco's Modified Eagle's Medium (DMEM), 10% calf serum. On day two, cells were transfected using the transfection reagent Superfect® (Qiagen, Inc.) as recommended by the manufacturer. Various doses of the nuclear receptor plasmid DNA were transfected. DNA mixtures included 0.1 to 10 ng/well of receptors DNA, 20 to 30 ng/well of β-galactosidase plasmid DNA (pSV β-galactosidase, Promega) and 15 μl of Superfect®. On day three, the media was replaced by DMEM with 2% Cyto-SF3 (Kemp Biotechnologies, Inc.) containing variable amounts of the compounds being tested. […] All data were obtained by measuring the change in absorbance at 420 nm using an automated plate reader. EC50 values were calculated using the equation r=A+B(x/(c+c)), where A=minimum response, B=maximum response minus maximum response, c=EC50, r=response, and x=concentration of ligand. Curves were generated using XLFit software (Microsoft).
The coactivators GRIP1 (Glucocorticoid Receptor Interacting Protein 1) (GenBank U39060) and SRC-1 (Steroid Receptor Coactivator 1) (GenBank U90661) were used in this assay. In summary, plasmid DNA encoding the coactivator(s) were transfected along with the aforementioned transfection mixture (containing the PXR, RXR, and β-Gal plasmid DNAs).

`CC(C)CC[C@@H](O)[C@@H](C)[C@H]1CC[C@H]2[C@@H]3CC=C4C[C@@H](O)CC[C@]4(C)[C@H]3CC[C@]12C` [22(R)OH-Cholesterol]: the EC50 on LXRβ (NR1H2) and on LXRα (NR1H3) was 3 to 5 µM in each case.

For `C[C@]12CC[C@@H](O)C[C@@H]1CC[C@@H]1[C@@H]2CC[C@]2(C)C=CC[C@@H]12` [Androstenol], in data set [1], the inverse agonist activity entry is “inverse agonist activity”.

Take `CCCCC[C@H](O)/C=C/[C@@H]1[C@H]2C/C(=C/CCCC(=O)O)C[C@H]2C[C@H]1O` [carbaprostacyclin]: the EC50 on PPARδ (NR1C2) fell in the range of 200 to 500 nM.

In the case of `CO[C@H]1/C=C/O[C@@]2(C)Oc3c(C)c(O)c4c(O)c(c(/C=N/N5CCN(C)CC5)c(O)c4c3C2=O)NC(=O)/C(C)=C\C=C\[C@H](C)[C@H](O)[C@@H](C)[C@@H](O)[C@@H](C)[C@H](OC(C)=O)[C@@H]1C` [rifampicin], on PXR/RXR heterodimer, the “efficacy of pharmacological response” value is listed as 5-10%.

The record behind these values is patent US20060134670A1, “Enabling tools to identify ligands for hormone nuclear receptors” (priority 2004, published 2006).
